# In US12071425B2 (Genentech, Inc., priority 2018, dated 2024):
# Molecular target: kinase domain of IRE1 alpha (His-tagged kinase dead construct KR, AA G547-L977, D688N) (Homo sapiens (Human), UniProt O75460, D688N)
# Assay: IRE1α TR-FRET competition binding assay
# Conditions: competition with Kinase Tracer 236, 0.1 μM; one hour at room temperature
# How it was run: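 Compound displacement of an ATP-site fluorescent tracer (0.1 μM final) measured by TR-FRET after 1 h at room temperature. Protein, a His-tagged D688N kinase/RNase construct from Sf9 cells (0.006 μM final), was pre-bound 1 h at 4° C to Eu anti-His antibody (0.002 μM) in pH 7.5 HEPES buffer.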
# Sequence of kinase domain of IRE1 alpha (His-tagged kinase dead construct KR, AA G547-L977, D688N) (O75460 547-977 D688N): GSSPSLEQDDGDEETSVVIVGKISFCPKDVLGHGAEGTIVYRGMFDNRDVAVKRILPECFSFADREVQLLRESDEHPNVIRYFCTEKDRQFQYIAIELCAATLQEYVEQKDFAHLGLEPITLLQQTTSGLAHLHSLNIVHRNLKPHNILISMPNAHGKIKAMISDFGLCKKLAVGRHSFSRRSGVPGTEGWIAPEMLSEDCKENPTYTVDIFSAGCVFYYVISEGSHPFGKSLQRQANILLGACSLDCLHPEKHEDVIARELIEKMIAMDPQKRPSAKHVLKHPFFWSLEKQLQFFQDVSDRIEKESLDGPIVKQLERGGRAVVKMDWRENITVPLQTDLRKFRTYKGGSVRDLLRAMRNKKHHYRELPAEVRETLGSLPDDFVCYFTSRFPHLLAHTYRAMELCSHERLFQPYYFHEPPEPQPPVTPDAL
row,IC50,Structure (SMILES)
1,0.2 nM,"O=S(=O)(Cc1ccccc1F)Nc1c(F)cc(Oc2ncccc2-c2ccnc(N[C@@H]3CNC[C@@H](F)C3)n2)c(F)c1F [Compound 355, 1-(2-Fluorophenyl)-N-[2,3,6-trifluoro-4-[[3-[2-[[(3S,5S)-5-fluoro-3-piperidyl]amino]pyrimidin-4-yl]-2-pyridyl]oxy]phenyl]methanesulfonamide]"
2,0.2 nM,"O=S(=O)(Cc1ccccn1)Nc1c(F)cc(Oc2ncccc2-c2ccnc(N[C@@H]3CNC[C@@H](F)C3)n2)c(F)c1F [Compound 356, 1-(2-Pyridyl)-N-[2,3,6-trifluoro-4-[[3-[2-[[(3S,5S)-5-fluoro-3-piperidyl]amino]pyrimidin-4-yl]-2-pyridyl]oxy]phenyl]methanesulfonamide]"
3,1 nM,"N#Cc1cc(F)ccc1CS(=O)(=O)Nc1c(F)cc(Oc2ncccc2-c2ccnc(N[C@@H]3CNC[C@@H](F)C3)n2)c(F)c1F [Compound 357, 1-(2-Cyano-4-fluoro-phenyl)-N-[2,3,6-trifluoro-4-[[3-[2-[[(3S,5S)-5-fluoro-3-piperidyl]amino]pyrimidin-4-yl]-2-pyridyl]oxy]phenyl]methanesulfonamide]"
4,0.3 nM,N#Cc1ccccc1CS(=O)(=O)Nc1c(F)cc(Oc2ncccc2-c2ccnc(N[C@@H]3CNC[C@@H](F)C3)n2)c(F)c1F [Compound 358]
5,0.3 nM,O=S(=O)(Cc1ccncc1)Nc1c(F)cc(Oc2ncccc2-c2ccnc(N[C@@H]3CNC[C@@H](F)C3)n2)c(F)c1F [Compound 359]
6,0.8 nM,N#Cc1ccc(CS(=O)(=O)Nc2c(F)cc(Oc3ncccc3-c3ccnc(N[C@@H]4CNC[C@@H](F)C4)n3)c(F)c2F)c(F)c1 [Compound 360]
7,0.3 nM,"NC(=O)c1ccc(CS(=O)(=O)Nc2c(F)cc(Oc3ncccc3-c3ccnc(N[C@@H]4CNC[C@@H](F)C4)n3)c(F)c2F)c(F)c1 [Compound 361, 3-Fluoro-4-[[2,3,6-trifluoro-4-[[3-[2-[[(3S,5S)-5-fluoro-3-piperidyl]amino]pyrimidin-4-yl]-2-pyridyl]oxy]phenyl]sulfamoylmethyl]benzamide]"
8,0.2 nM,N#Cc1cc(Cl)ccc1CS(=O)(=O)Nc1c(F)cc(Oc2ncccc2-c2ccnc(N[C@@H]3CNC[C@@H](F)C3)n2)c(F)c1F [Compound 362]
9,0.2 nM,"O=S(=O)(Cc1c(F)cccc1F)Nc1c(F)cc(Oc2ncccc2-c2ccnc(N[C@@H]3CNC[C@@H](F)C3)n2)c(F)c1F [Compound 363, 1-(2,6-Difluorophenyl)-N-[2,3,6-trifluoro-4-[[3-[2-[[(3S,5S)-5-fluoro-3-piperidyl]amino]pyrimidin-4-yl]-2-pyridyl]oxy]phenyl]methanesulfonamide]"
10,0.3 nM,"O=S(=O)(Cc1ccc(Cl)cc1F)Nc1c(F)cc(Oc2ncccc2-c2ccnc(N[C@@H]3CNC[C@@H](F)C3)n2)c(F)c1F [Compound 364, 1-(4-Chloro-2-fluoro-phenyl)-N-[2,3,6-trifluoro-4-[[3-[2-[[(3S,5S)-5-fluoro-3-piperidyl]amino]pyrimidin-4-yl]-2-pyridyl]oxy]phenyl]methanesulfonamide]"
11,0.7 nM,"O=S(=O)(Cc1ccc(F)cc1Cl)Nc1c(F)cc(Oc2ncccc2-c2ccnc(N[C@@H]3CNC[C@@H](F)C3)n2)c(F)c1F [Compound 365, 1-(2-Chloro-4-fluoro-phenyl)-N-[2,3,6-trifluoro-4-[[3-[2-[[(3S,5S)-5-fluoro-3-piperidyl]amino]pyrimidin-4-yl]-2-pyridyl]oxy]phenyl]methanesulfonamide]"
12,0.2 nM,"O=S(=O)(Cc1ccc(F)c(Cl)c1)Nc1c(F)cc(Oc2ncccc2-c2ccnc(N[C@@H]3CNC[C@@H](F)C3)n2)c(F)c1F [Compound 366, 1-(3-Chloro-4-fluoro-phenyl)-N-[2,3,6-trifluoro-4-[[3-[2-[[(3S,5S)-5-fluoro-3-piperidyl]amino]pyrimidin-4-yl]-2-pyridyl]oxy]phenyl]methanesulfonamide]"
